# Entries after “also recorded” stand apart in the source; their conditions may differ. Where two headings read alike, the source gives them in different places.
# What was measured:
# Format in all cases: cell-based
# [1] = system: Acinetobacter Baumannii ATCC 19606; assay: MIC, agar dilution (BSAC guidelines)
# Method: (§1) In example experiments miconazole nitrate, was dissolved in methanol and econazole nitrate and clotrimazole were dissolved in DMSO and methanol respectively. Other solvents that may be used include caster oil, pyridine, DMSO and 0.9% saline. For IV administration agents may be solubilised in polyethoxylated caster oil, or cyclodextrins such as sulfobutylether7-βcyclodextrin or hydroxypropyl-β-cyclodextrin and lactic acid. Minimum inhibitory concentrations (MICs) of a range of clinical and control bacterial organisms were measured according to BSAC (British Society for Antimicrobial Chemotherapy) guidelines, described briefly as follows;
# (§2) Preparation of Agar Plates and Broths
# (§3) Stock solutions of each agent were prepared using the formula:
# (§4) Where P=μg of active compound per mg (μg/mg) • V=volume required (mL) • C=final concentration of solution (mg/L) • W=weight of agent (mg) to be dissolved in volume V (mL)
# (§5) Stock solutions were prepared at concentrations of 1000 mg/L and 100 mg/L. The appropriate amounts of each stock solution were added to separate Petri dishes give the following final concentrations (after the addition of 20 mL molten agar): 128, 64, 32, 16, 8, 4, 2, 1, 0.5, 0.25, 0.12, 0.06, 0.03, 0.015 mg/L.
# (§6) Volumes (20 mL) of cooled molten IST agar (oxoid) was added to each Petri dish and mixed by swirling.
# (§7) After drying, the plates were stored at 4° C. and protected from light. Plates were used on the day of preparation.
# (§8) The test organisms were grown overnight in 5 mL IST broth. Using a dilution in 0.9% saline of 1:500 for Gram-negative organisms and 1:100 for Gram-positive organisms, the appropriate agar plates were inoculated using a multipoint inoculator.
# (§9) Plates were incubated at 37° C. in air for 18-20 hours.
# (§10) The MIC is the minimum amount of an antibiotic at which there is no visible growth of bacteria. Tiny single colonies or faint hazes were not counted as growth.
# [2] = system: Enterococcus faecalis (VRE) E8 VanA; assay: MIC, agar dilution (BSAC guidelines); settings: E. faecalis (VRE) E8 VanA
# Method: as §1, §2, §3, §4, §5, §6, §7, §8, §9, §10
# [3] = system: Enterococcus faecium (VRE) E15 VanA ATCC 4147; assay: MIC, agar dilution (BSAC guidelines)
# Method: as §1, §2, §3, §4, §5, §6, §7, §8, §9, §10
# [4] = system: Enterococcus faecium (VRE) E19 UAA/522 VanB; assay: MIC, agar dilution (BSAC guidelines); settings: E. faecium (VRE) E19 UAA/522 VanB
# Method: as §1, §2, §3, §4, §5, §6, §7, §8, §9, §10
# [5] = system: Enterococcus faecium (VRE) NCTC 7171; assay: MIC, agar dilution (BSAC guidelines)
# Method: as §1, §2, §3, §4, §5, §6, §7, §8, §9, §10
# [6] = system: Enterococcus faecium (VRE) VanR B145344C LFE; assay: MIC, agar dilution (BSAC guidelines); settings: E. faecium (VRE) VanR B145344C LFE
# Method: as §1, §2, §3, §4, §5, §6, §7, §8, §9, §10
# [7] = system: Enterococcus gallinarum (VRE) E1 NCTC 12359 VanC1; assay: MIC, agar dilution (BSAC guidelines)
# Method: as §1, §2, §3, §4, §5, §6, §7, §8, §9, §10
# [8] = system: Escherichia coli NCTC 10418; assay: MIC, agar dilution (BSAC guidelines)
# Method: as §1, §2, §3, §4, §5, §6, §7, §8, §9, §10
# [9] = system: Klebsiella pneumoniae ESBL 700603; assay: MIC, agar dilution (BSAC guidelines)
# Method: as §1, §2, §3, §4, §5, §6, §7, §8, §9, §10
# [10] = system: Pseudomonas aeruginosa NCTC 10662; assay: MIC, agar dilution (BSAC guidelines)
# Method: as §1, §2, §3, §4, §5, §6, §7, §8, §9, §10
# [11] = system: Staphylococcus epidermidis ATCC 1228; assay: MIC, agar dilution (BSAC guidelines)
# Method: as §1, §2, §3, §4, §5, §6, §7, §8, §9, §10
# [12] = system: VISA, strain USA/VISA 5827; assay: MIC, agar dilution (BSAC guidelines); settings: Staphylococcus aureus
# Method: as §1, §2, §3, §4, §5, §6, §7, §8, §9, §10
# [13] = system: VISA, strain USA/VISA 5836; assay: MIC, agar dilution (BSAC guidelines); settings: Staphylococcus aureus
# Method: as §1, §2, §3, §4, §5, §6, §7, §8, §9, §10
# [14] = system: VISA, strain VISA 3900 UK; assay: MIC, agar dilution (BSAC guidelines); settings: Staphylococcus aureus
# Method: as §1, §2, §3, §4, §5, §6, §7, §8, §9, §10
# Gram-negative organisms = assay: Growth inhibition, summary of MIC testing; settings: summary in words
# Method: as §1, §5, §8, §9, §10
# [15] = system: strains of Staphylococci and Enterococci with reduced susceptibility to vancomycin; assay: Growth inhibition, summary of MIC testing; settings: summary in words
# Method: as §1, §5, §8, §9, §10
# [16] = ATCC19606, Acinetobacter Baumannii ATCC 19606, replicate 1, read-out: Minimum inhibitory concentration (MIC)
# [17] = ATCC19606, Acinetobacter Baumannii ATCC 19606, replicate 2, read-out: Minimum inhibitory concentration (MIC)
# [18] = ATCC19606, Acinetobacter Baumannii ATCC 19606, replicate 3, read-out: Minimum inhibitory concentration (MIC)
# [19] = replicate 1, read-out: Minimum inhibitory concentration (MIC)
# [20] = replicate 2, read-out: Minimum inhibitory concentration (MIC)
# [21] = replicate 3, read-out: Minimum inhibitory concentration (MIC)
# [22] = E. faecium (VRE) E15 VanA ATCC 4147, replicate 1, read-out: Minimum inhibitory concentration (MIC)
# [23] = E. faecium (VRE) E15 VanA ATCC 4147, replicate 2, read-out: Minimum inhibitory concentration (MIC)
# [24] = E. faecium (VRE) E15 VanA ATCC 4147, replicate 3, read-out: Minimum inhibitory concentration (MIC)
# [25] = E. faecium (VRE) NCTC 7171, replicate 1, read-out: Minimum inhibitory concentration (MIC)
# [26] = E. faecium (VRE) NCTC 7171, replicate 2, read-out: Minimum inhibitory concentration (MIC)
# [27] = E. faecium (VRE) NCTC 7171, replicate 3, read-out: Minimum inhibitory concentration (MIC)
# [28] = E. gallinarum (VRE) E1 NCTC 12359 VanC1, replicate 1, read-out: Minimum inhibitory concentration (MIC)
# [29] = E. gallinarum (VRE) E1 NCTC 12359 VanC1, replicate 2, read-out: Minimum inhibitory concentration (MIC)
# [30] = E. gallinarum (VRE) E1 NCTC 12359 VanC1, replicate 3, read-out: Minimum inhibitory concentration (MIC)
# [31] = NCTC10418, E. coli NCTC 10418, replicate 1, read-out: Minimum inhibitory concentration (MIC)
# [32] = NCTC10418, E. coli NCTC 10418, replicate 2, read-out: Minimum inhibitory concentration (MIC)
# [33] = NCTC10418, E. coli NCTC 10418, replicate 3, read-out: Minimum inhibitory concentration (MIC)
# [34] = ESBL700603, K. pneumoniae ESBL 700603, replicate 1, read-out: Minimum inhibitory concentration (MIC)
# [35] = ESBL700603, K. pneumoniae ESBL 700603, replicate 2, read-out: Minimum inhibitory concentration (MIC)
# [36] = ESBL700603, K. pneumoniae ESBL 700603, replicate 3, read-out: Minimum inhibitory concentration (MIC)
# [37] = NCTC10662, P. aeruginosa NCTC 10662, replicate 1, read-out: Minimum inhibitory concentration (MIC)
# [38] = NCTC10662, P. aeruginosa NCTC 10662, replicate 2, read-out: Minimum inhibitory concentration (MIC)
# [39] = NCTC10662, P. aeruginosa NCTC 10662, replicate 3, read-out: Minimum inhibitory concentration (MIC)
# [40] = ATCC1228, S. epidermidis ATCC 1228, replicate 1, read-out: Minimum inhibitory concentration (MIC)
# [41] = ATCC1228, S. epidermidis ATCC 1228, replicate 2, read-out: Minimum inhibitory concentration (MIC)
# [42] = ATCC1228, S. epidermidis ATCC 1228, replicate 3, read-out: Minimum inhibitory concentration (MIC)
smiles,measurement,setting,value
"Clc1ccccc1C(c1ccccc1)(c1ccccc1)n1ccnc1 [Clotrimazole, 1-[(2-chlorophenyl)diphenylmethyl]-1H-imidazole]",MIC,[1]; [16],> 10 µg/mL
same,MIC,[1]; [17],> 6 µg/mL
same,MIC,[1]; [18],> 6 µg/mL
same,MIC,[2]; [19],6.5 µg/mL
same,MIC,[2]; [20],> 6 µg/mL
same,MIC,[2]; [21],> 6 µg/mL
same,MIC,[3]; [22],2.5 µg/mL
same,MIC,[3]; [23],4 µg/mL
same,MIC,[3]; [24],4.5 µg/mL
same,MIC,[4]; [19],1.5 µg/mL
same,MIC,[4]; [20],3.5 µg/mL
same,MIC,[4]; [21],3.5 µg/mL
same,MIC,[5]; [25],4 µg/mL
same,MIC,[5]; [26],6 µg/mL
same,MIC,[5]; [27],> 6 µg/mL
same,MIC,[6]; [19],3 µg/mL
same,MIC,[6]; [20],4.5 µg/mL
same,MIC,[6]; [21],5 µg/mL
same,MIC,[7]; [28],4 µg/mL
same,MIC,[7]; [29],6 µg/mL
same,MIC,[7]; [30],> 6 µg/mL
same,MIC,[8]; [31],> 10 µg/mL
same,MIC,[8]; [32],> 6 µg/mL
same,MIC,[8]; [33],> 6 µg/mL
same,MIC,[9]; [34],> 10 µg/mL
same,MIC,[9]; [35],> 6 µg/mL
same,MIC,[9]; [36],> 6 µg/mL
same,MIC,[10]; [37],> 10 µg/mL
same,MIC,[10]; [38],> 6 µg/mL
same,MIC,[10]; [39],> 6 µg/mL
same,MIC,[11]; [40],3 µg/mL
same,MIC,[11]; [41],3 µg/mL
same,MIC,[11]; [42],2.5 µg/mL
same,MIC,[12]; [19],1.5 µg/mL
same,MIC,[12]; [20],3.5 µg/mL
same,MIC,[12]; [21],3 µg/mL
same,MIC,[13]; [19],1.5 µg/mL
same,MIC,[13]; [20],3 µg/mL
same,MIC,[13]; [21],2.5 µg/mL
same,MIC,[14]; [19],1.5 µg/mL
same,MIC,[14]; [20],2.5 µg/mL
same,MIC,[14]; [21],2.5 µg/mL
same,activity against Gram-negative organisms,Gram-negative organisms,no significant activity
same,activity against strains of Staphylococci and Enterococci with reduced susceptibility to vancomycin,[15],good activity; also recorded: capable of inhibiting the growth
Clc1ccc(COC(Cn2ccnc2)c2ccc(Cl)cc2Cl)cc1 (stereo not shown) [Econazole],MIC,[1]; [16],> 10 µg/mL
same,MIC,[1]; [17],> 6 µg/mL
same,MIC,[1]; [18],> 6 µg/mL
same,MIC,[2]; [19],7 µg/mL
same,MIC,[2]; [20],> 6 µg/mL
same,MIC,[2]; [21],> 6 µg/mL
same,MIC,[3]; [22],3 µg/mL
same,MIC,[3]; [23],4.5 µg/mL
same,MIC,[3]; [24],3 µg/mL
same,MIC,[4]; [19],2 µg/mL
same,MIC,[4]; [20],4.5 µg/mL
same,MIC,[4]; [21],2 µg/mL
same,MIC,[5]; [25],4 µg/mL
same,MIC,[5]; [26],> 6 µg/mL
same,MIC,[5]; [27],> 6 µg/mL
same,MIC,[6]; [19],3.5 µg/mL
same,MIC,[6]; [20],5 µg/mL
same,MIC,[6]; [21],2.5 µg/mL
same,MIC,[7]; [28],3 µg/mL
same,MIC,[7]; [29],5.5 µg/mL
same,MIC,[7]; [30],3 µg/mL
same,MIC,[8]; [31],> 10 µg/mL
same,MIC,[8]; [32],> 6 µg/mL
same,MIC,[8]; [33],> 6 µg/mL
same,MIC,[9]; [34],> 10 µg/mL
same,MIC,[9]; [35],> 6 µg/mL
same,MIC,[9]; [36],> 6 µg/mL
same,MIC,[10]; [37],> 10 µg/mL
same,MIC,[10]; [38],> 6 µg/mL
same,MIC,[10]; [39],> 6 µg/mL
same,MIC,[11]; [40],4 µg/mL
same,MIC,[11]; [41],2 µg/mL
same,MIC,[11]; [42],2.5 µg/mL
same,MIC,[12]; [19],1.5 µg/mL
same,MIC,[12]; [20],2 µg/mL
same,MIC,[12]; [21],2.5 µg/mL
same,MIC,[13]; [19],2 µg/mL
same,MIC,[13]; [20],4.5 µg/mL
same,MIC,[13]; [21],4 µg/mL
same,MIC,[14]; [19],1.5 µg/mL
same,MIC,[14]; [20],2 µg/mL
same,MIC,[14]; [21],2 µg/mL
same,activity against Gram-negative organisms,Gram-negative organisms,no significant activity
same,activity against strains of Staphylococci and Enterococci with reduced susceptibility to vancomycin,[15],good activity; also recorded: capable of inhibiting the growth

# Source: patent publication US20100144626A1, “Treatment of Multi-Drug Resistant Bacterial Infections” (priority 2006, published 2010)
